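Cultured in 96-well plates, cells were exposed to test compound for 48 hours across five concentrations. The concentration for 50% growth inhibition is given as GI50. TGI denotes the concentration required for complete inhibition of growth.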
How the values were obtained:
Assay in all cases: inhibition of tumour cell growth, NCI panel, 48 h
[1] = tested on: 786-0 renal
[2] = tested on: A549 NSCLC
[3] = tested on: NCI-H23 lung
[4] = tested on: OVCAR-3 ovarian
[5] = tested on: OVCAR-5 ovarian
[6] = tested on: HL-60(TB) leukemia
[7] = tested on: LOX IMVI melanoma
[8] = tested on: MALME-3M melanoma
[9] = tested on: TK-10 renal
[10] = tested on: HT29 colon

SMILES: CCCCCCN(CCCCCC)CC(O)c1ccc2c3c(cccc13)CC2 (stereo not given)
- GI50 [1]: 6.15 µM
- TGI [1]: 20.2 µM
- GI50 [2]: 10.4 µM
- TGI [2]: 24 µM
- GI50 [3]: 3.7 µM
- TGI [3]: 18.1 µM
- GI50 [4]: 8.96 µM
- TGI [4]: 21.6 µM
- GI50 [5]: 10.8 µM
- TGI [5]: 23.9 µM
- GI50 [6]: 2.16 µM
- TGI [6]: 6.16 µM
- GI50 [7]: 3.42 µM
- TGI [7]: 14.6 µM
- GI50 [8]: 14.1 µM
- TGI [8]: 32.1 µM
- GI50 [9]: 10.7 µM
- TGI [9]: 23.2 µM
- GI50 [10]: 1.18 µM
- TGI [10]: 13.2 µM

SMILES: C[C@]12CC[C@@H]3c4ccc(O)cc4C(O)C[C@H]3[C@@H]1CCC2=O (stereo not given in full)
- GI50 [1]: > 100 µM
- TGI [1]: > 100 µM
- GI50 [2]: > 100 µM
- TGI [2]: > 100 µM
- GI50 [3]: > 100 µM
- TGI [3]: > 100 µM
- GI50 [4]: > 100 µM
- TGI [4]: > 100 µM
- GI50 [5]: > 100 µM
- TGI [5]: > 100 µM
- GI50 [6]: > 100 µM
- TGI [6]: > 100 µM
- GI50 [7]: > 100 µM
- TGI [7]: > 100 µM
- GI50 [8]: > 100 µM
- TGI [8]: > 100 µM
- GI50 [9]: > 100 µM
- TGI [9]: > 100 µM
- GI50 [10]: 46.7 µM
- TGI [10]: > 100 µM

SMILES: COc1ccc(/C=C2\C(=O)N(C(=O)Cc3ccccc3)N=C2C)cc1OC
- TGI [1]: > 100 µM
- TGI [2]: > 100 µM
- TGI [3]: > 100 µM
- TGI [4]: > 100 µM
- TGI [5]: > 100 µM
- TGI [6]: > 100 µM
- TGI [7]: > 100 µM
- TGI [8]: > 100 µM
- TGI [9]: > 100 µM
- TGI [10]: > 100 µM

SMILES: Cc1c2ccc(N(C)c3ccnc(Nc4cccc(S(N)(=O)=O)c4)n3)cc2nn1C
- GI50 [1]: 13.2 µM
- TGI [1]: > 25 µM
- GI50 [2]: 11.9 µM
- TGI [2]: > 25 µM
- GI50 [3]: 7.49 µM
- TGI [3]: > 25 µM
- GI50 [4]: 14.2 µM
- TGI [4]: > 25 µM
- GI50 [5]: 11.4 µM
- TGI [5]: > 25 µM
- GI50 [6]: 8.44 µM
- TGI [6]: > 19.1 µM
- GI50 [7]: 6.86 µM
- TGI [7]: > 25 µM
- GI50 [8]: 5.74 µM
- TGI [8]: 20.2 µM
- GI50 [9]: 10.5 µM
- TGI [9]: > 25 µM
- GI50 [10]: 8.03 µM
- TGI [10]: > 25 µM

SMILES: O=[N+]([O-])c1nccn1COCCBr
- TGI [1]: > 100 µM
- TGI [2]: > 100 µM
- TGI [3]: > 100 µM
- TGI [4]: > 100 µM
- TGI [5]: > 100 µM
- TGI [6]: > 100 µM
- TGI [7]: > 100 µM
- TGI [8]: > 100 µM
- TGI [9]: > 100 µM
- TGI [10]: > 100 µM

SMILES: CCN(CC)c1ccc2c(c1)Nc1cc(=C(C#N)C#N)c3ccccc3c1=N2
- TGI [1]: > 100 µM
- TGI [2]: > 100 µM
- TGI [3]: > 100 µM
- TGI [4]: > 100 µM
- TGI [5]: > 100 µM
- TGI [6]: > 100 µM
- TGI [7]: > 100 µM
- TGI [8]: > 100 µM
- TGI [9]: > 100 µM
- TGI [10]: > 100 µM

SMILES: C=C(C=O)CCCC(C)[C@@H]1CCC23CC12CCC1[C@@]2(C)CCC(OC(C)=O)C(C)(C)C2CC(OC2OC(COC(C)=O)C(O)C(O)C2O)[C@]13C (stereo not given in full)
- TGI [1]: 13.2 µM
- TGI [2]: 12.5 µM
- TGI [3]: 14.8 µM
- TGI [4]: 8.21 µM
- TGI [5]: 11.8 µM
- TGI [6]: 2.04 µM
- TGI [7]: 1.43 µM
- TGI [8]: 7.17 µM
- TGI [9]: 12.5 µM
- TGI [10]: 11.9 µM
